# Earlier results, collected in patent US7652014B2, “Substituted 6-cyclohexylalkyl substituted 2-quinolinones and 2-quinoxalinones as poly(ADP-ribose) polymerase inhibitors” (Janssen Pharmaceutica, priority 2003, dated 2010).
# Legend:
# [1] = tested on: infarct size caused by ischemia and reperfusion of the heart; settings: rabbits, cited from earlier work
# colitis = settings: rats, trinitrobenzene sulfonic acid induced colitis, distal colon; cited from earlier work
SMILES,reduction in infarct size ([1]; single injection 1 mg/kg),"reduction in infarct size in the heart ([1]; single injection 10 mg/kg, one minute before occlusion or one minute before reperfusion)",effect on inflammatory response in colitis (colitis)
"Oc1cccc2c(O)nccc12 [1,5-dihydroxyisoquinoline]",38-48%,–,–
NC(=O)c1cccc(N)c1 [3-amino-benzamide],–,32-42%,reduced the inflammatory response
